System: P12-Ichikawa
Test: cell viability relative to DMSO control; higher = less cytotoxic
Details: 48 h
Method in brief: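 Leukemia cells (NOMO1 or SEM, 500 cells/well; P12-Ichikawa, 1000 cells/well) were seeded in 5 μl in 1536-well plates after at least four passages of adaptation to each medium. They received library compounds in DMSO by pin dosing, 11 threefold points from 47 μM to 0.79 nM. Luminescence with CellTiter-Glo One was read after 48 h at 37°C. Viability is stated per plate relative to DMSO wells, with cell-free wells as background.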

[1] = HPLM + 10% dialyzed FBS, 0.000781 µM
[2] = HPLM + 10% dialyzed FBS, 0.00234 µM
[3] = HPLM + 10% dialyzed FBS, 0.00702 µM
[4] = HPLM + 10% dialyzed FBS, 0.0211 µM
[5] = HPLM + 10% dialyzed FBS, 0.0632 µM
[6] = HPLM + 10% dialyzed FBS, 0.19 µM
[7] = HPLM + 10% dialyzed FBS, 0.569 µM
[8] = HPLM + 10% dialyzed FBS, 1.71 µM
[9] = HPLM + 10% dialyzed FBS, 5.12 µM
[10] = HPLM + 10% dialyzed FBS, 15.4 µM
[11] = HPLM + 10% dialyzed FBS, 46.1 µM
[12] = RPMI 5 mM glucose + 10% FBS, 0.000781 µM
[13] = RPMI 5 mM glucose + 10% FBS, 0.00234 µM
[14] = RPMI 5 mM glucose + 10% FBS, 0.00702 µM
[15] = RPMI 5 mM glucose + 10% FBS, 0.0211 µM
[16] = RPMI 5 mM glucose + 10% FBS, 0.0632 µM
[17] = RPMI 5 mM glucose + 10% FBS, 0.19 µM
[18] = RPMI 5 mM glucose + 10% FBS, 0.569 µM
[19] = RPMI 5 mM glucose + 10% FBS, 1.71 µM
[20] = RPMI 5 mM glucose + 10% FBS, 5.12 µM
[21] = RPMI 5 mM glucose + 10% FBS, 15.4 µM
[22] = RPMI 5 mM glucose + 10% FBS, 46.1 µM
[23] = RPMI 5 mM glucose + 10% dialyzed FBS, 0.000781 µM
[24] = RPMI 5 mM glucose + 10% dialyzed FBS, 0.00234 µM
[25] = RPMI 5 mM glucose + 10% dialyzed FBS, 0.00702 µM
[26] = RPMI 5 mM glucose + 10% dialyzed FBS, 0.0211 µM
[27] = RPMI 5 mM glucose + 10% dialyzed FBS, 0.0632 µM
[28] = RPMI 5 mM glucose + 10% dialyzed FBS, 0.19 µM
[29] = RPMI 5 mM glucose + 10% dialyzed FBS, 0.569 µM
[30] = RPMI 5 mM glucose + 10% dialyzed FBS, 1.71 µM
[31] = RPMI 5 mM glucose + 10% dialyzed FBS, 5.12 µM
[32] = RPMI 5 mM glucose + 10% dialyzed FBS, 15.4 µM
[33] = RPMI 5 mM glucose + 10% dialyzed FBS, 46.1 µM

| SMILES | cell viability [1] | cell viability [2] | cell viability [3] | cell viability [4] | cell viability [5] | cell viability [6] | cell viability [7] | cell viability [8] | cell viability [9] | cell viability [10] | cell viability [11] | cell viability [12] | cell viability [13] | cell viability [14] | cell viability [15] | cell viability [16] | cell viability [17] | cell viability [18] | cell viability [19] | cell viability [20] | cell viability [21] | cell viability [22] | cell viability [23] | cell viability [24] | cell viability [25] | cell viability [26] | cell viability [27] | cell viability [28] | cell viability [29] | cell viability [30] | cell viability [31] | cell viability [32] | cell viability [33] |
| --- | --- | --- | --- | --- | --- | --- | --- | --- | --- | --- | --- | --- | --- | --- | --- | --- | --- | --- | --- | --- | --- | --- | --- | --- | --- | --- | --- | --- | --- | --- | --- | --- | --- |
| CCCCN(CCCC)CCC(O)c1cc2c(Cl)cc(Cl)cc2c2cc(C(F)(F)F)ccc12 (stereo not given) | 120% | 122% | 118% | 120% | 130% | 131% | 130% | 131% | 131% | 124% | 121% | 115% | 126% | 119% | 118% | 135% | 147% | 141% | 150% | 132% | 105% | 88.3% | 108% | 110% | 114% | 117% | 120% | 125% | 130% | 138% | 131% | 141% | 105% |
| COc1cc2c(N3CCN(C(=O)Nc4ccc(OC(C)C)cc4)CC3)ncnc2cc1OCCCN1CCCCC1 | 88.6% | 92.6% | 87.4% | 97.5% | 91.3% | 91.6% | 92.3% | 90% | 86% | 58% | 43.4% | 84.3% | 74.1% | 80% | 92.5% | 86.3% | 72.8% | 78.9% | 80.1% | 77.4% | 42.9% | 48.1% | 79.5% | 86.9% | 84.7% | 83% | 81.1% | 82.2% | 83.6% | 79% | 84.6% | 38.1% | 56% |
| C[C@H]([C@H](O)CCC(C)(C)O)[C@H]1CC[C@@]2(O)C/3=C/C(=O)[C@@H]4C[C@@H](O)[C@@H](O)C[C@]4(C)[C@H]3CC[C@]12C |  |  |  |  |  |  |  |  |  |  |  |  |  |  |  |  |  |  |  |  |  |  | 109% | 125% | 121% | 124% | 131% | 122% | 119% | 121% | 120% | 107% | 113% |
| CCC1=C[C@@H]2CN(C1)Cc1c([nH]c3ccccc13)[C@@](C(=O)OC)(c1cc3c(cc1OC)N(C)[C@H]1[C@@](O)(C(=O)OC)[C@H](OC(C)=O)[C@]4(CC)C=CCN5CC[C@]31[C@@H]54)C2 | 106% | 110% | 94.4% | 85.4% | 36.2% | 15.4% | 15.9% | 12.6% | 12.8% | 8.96% | 7.62% | 108% | 108% | 96.6% | 59.8% | 29.6% | 16.2% | 18.3% | 16.5% | 11% | 9.49% | 7.18% | 110% | 100% | 99.7% | 89.4% | 59.2% | 21.7% | 29.3% | 25.4% | 22.4% | 13.9% | 10.6% |
